Results reported in patent US20230287021A1, “COMPOUNDS, COMPOSITIONS AND METHODS FOR STABILIZING TRANSTHYRETIN AND INHIBITING TRANSTHYRETIN MISFOLDING” (Protego Biopharma, Inc., priority 2020, published 2023).
Structures can show the parent of a compound that is named as a salt.

Key:
[1] = In vitro rat plasma stability assay, formation of tafamidis; format: in vitro ADME; conditions: 37° C., 2 µM test compound
Method in brief: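 Compound at 2 µM incubated in rat plasma at 37 °C, sampled at 0, 10, 30, 60, 120 min or 0, 60, 120, 180, 240 min. Protein precipitated, supernatant analyzed by LC-MS/MS, and percentage formation of tafamidis calculated per time point.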

[2] = In vitro rat liver S9 stability assay, formation of tafamidis; format: in vitro ADME; conditions: rat liver S9, 37° C., 1 µM test compound
Experimental: The test compound was added to liver S9 and incubated at 37° C. in a water bath at a concentration of 1 µM. At each time point (0, 5, 10, 20, 30 and 60 min), stop solution (tolbutamide plus labetalol) was added to precipitate protein and mixed thoroughly. After centrifugation, an aliquot of supernatant was analyzed by LC-MS/MS. The percentage of formation of active agent was calculated at each time point.

[3] = In vivo rat PK: tafamidis in plasma, CSF and brain; parameters: species or system Male Sprague-Dawley (SD) rats; conditions: for Tafamidis CSF/Plasma Ratio (iv): iv administration of test compound; for Tafamidis CSF/Plasma Ratio over 24 hrs (po): po administration of test compound
Text: For a compound provided herein to be an effective TTR stabilizer drug to halt and/or prevent the ocular and cerebral TTR amyloid deposition TTR amyloidosis, it has to be able to penetrate into the brain and CSF (surrogate for eye penetration) and deliver a sufficient amount of TTR stabilizer to stop TTR dissociation. A pharmacokinetic study in rat was used to evaluate the compounds. Male Sprague-Dawley (SD) rats (200-220 g weight) were acclimated for at least 2 to 3 days before being placed on study. All animals had access to certified rodent diet and water at libitum. Appropriate amount of the test compound was accurately weighed and mixed with appropriate volume of vehicle (such as DMSO/sterile water for iv dosing or 0.5% methylcellulose homogenous suspension or solution for oral administration or as a solution in a mixture NMP/PEG400/solutol/water) to administer a dose of 2, 5 or 10 mg/kg. For IV dosing the test compound was administered via tail vein or indwelling cannula. For oral dosing, the test compound was administered by oral gavage. Blood and CSF samples were collected at selected timepoints. Blood collection was performed from saphenous vein or tail vein of each animal into polypropylene tubes at each timepoint. All blood samples were transferred into EDTA-K2 tubes and centrifuged for 15 minutes at 4° C. for plasma collection. Plasma samples were kept at -80° C. until LC/MSMS analysis. CSF was collected from cisterna magna at each timepoint and quick frozen over dry ice and kept at -80° C. until LC/MSMS analysis. Brains were harvested immediately after the terminal bleeding (~ 24 hrs post dosing). The blood of the brain was perfused with normal saline. The brain was quickly picked and placed into centrifuge tube. The weight of brain samples was recorded. 4-Fold homogenization solution (MeOH/15 mM PBS (1:2)) was added into the tube according to the weighed samples. The brain was homogenized using a Polytron (3 strokes or more until homogenous, each 30 seconds) on wet ice. The samples were quick frozen over dry ice and kept at -80° C. until LC/MSMS analysis. Using a LC-MSMS method for the quantitative determination of test compound in biological matrixes, amount of test compound and active agent were measured in plasma and CSF at selected timepoints post-dosing and in brain at 24 hrs post dosing. Plasma concentration versus time data was analyzed by non-compartmental approaches using the Phoenix WinNonlin 6.3 software program. As reference, an oral dose of 2 mg/kg of tafamidis gave a CSF to plasma ratio over 24 hrs around 0.01 and a brain to plasma ratio at 24 hrs around 0.02.

CN1CCC(OC(=O)c2ccc3nc(-c4cc(Cl)cc(Cl)c4)oc3c2)C1 (stereo not shown) [Compound 7, 1-methylpyrrolidin-3-yl 2-(3,5-dichlorophenyl)benzo[d]oxazole-6-carboxylate]
Formation of tafamidis at 120 min [1]: D (D is ≥75%) | Formation of tafamidis at 60 min [2]: A (A is <25%) | Tafamidis CSF/Plasma Ratio (iv) [3]: C (C is ≥0.02) | Tafamidis CSF/Plasma Ratio over 24 hrs (po) [3]: C (C is ≥0.02)

CN(C)[C@H]1CCC[C@@H]1OC(=O)c1ccc2nc(-c3cc(Cl)cc(Cl)c3)oc2c1 [Compound 116]
Formation of tafamidis at 60 min [2]: A (A is <25%) | Tafamidis CSF/Plasma Ratio over 24 hrs (po) [3]: A (A is < 0.015)

O=C(OCCc1ncc[nH]1)c1ccc2nc(-c3cc(Cl)cc(Cl)c3)oc2c1 [Compound 153]
Formation of tafamidis at 120 min [1]: B (B is ≥25 to <50%) | Formation of tafamidis at 60 min [2]: B (B is ≥25 to <50%) | Tafamidis CSF/Plasma Ratio over 24 hrs (po) [3]: B (B is ≥0.015 to <0.02)

CC(CCN(C)C)OC(=O)c1ccc2nc(-c3cc(Cl)cc(Cl)c3)oc2c1 (stereo not shown) [Compound 49, 4-(dimethylamino)butan-2-yl 2-(3,5-dichlorophenyl)benzo[d] oxazole-6-carboxylate hydrochloride]
Formation of tafamidis at 120 min [1]: C (C is ≥50 to <75%) | Tafamidis CSF/Plasma Ratio (iv) [3]: C (C is ≥0.02)

CC(CN(C)C)OC(=O)c1ccc2nc(-c3cc(Cl)cc(Cl)c3)oc2c1 (single isomer, unassigned) [Compound 46, (S*)-1-(dimethylamino)propan-2-yl 2-(3,5-dichlorophenyl)benzo[d]oxazole-6-carboxylate]
Formation of tafamidis at 120 min [1]: B (B is ≥25 to <50%) | Formation of tafamidis at 60 min [2]: A (A is <25%) | Tafamidis CSF/Plasma Ratio (iv) [3]: C (C is ≥0.02) | Tafamidis CSF/Plasma Ratio over 24 hrs (po) [3]: A (A is < 0.015)

O=C(OCCCN1CCCCC1)c1ccc2nc(-c3cc(Cl)cc(Cl)c3)oc2c1 [Compound 41, 3-(piperidin-1-yl)propyl 2-(3,5-dichlorophenyl)benzo[d] oxazole-6-carboxylate]
Formation of tafamidis at 120 min [1]: C (C is ≥50 to <75%) | Formation of tafamidis at 60 min [2]: A (A is <25%) | Tafamidis CSF/Plasma Ratio (iv) [3]: C (C is ≥0.02) | Tafamidis CSF/Plasma Ratio over 24 hrs (po) [3]: A (A is < 0.015)

CS(=O)(=O)N1CCC(OC(=O)c2ccc3nc(-c4cc(Cl)cc(Cl)c4)oc3c2)C1 (stereo not shown) [Compound 139]
Formation of tafamidis at 120 min [1]: A (A is <25%) | Formation of tafamidis at 60 min [2]: B (B is ≥25 to <50%) | Tafamidis CSF/Plasma Ratio over 24 hrs (po) [3]: A (A is < 0.015)

O=C(c1ccc2nc(-c3cc(Cl)cc(Cl)c3)oc2c1)N1CCNCC1 [Compound 145]
Formation of tafamidis at 120 min [1]: A (A is <25%) | Formation of tafamidis at 60 min [2]: A (A is <25%) | Tafamidis CSF/Plasma Ratio over 24 hrs (po) [3]: B (B is ≥0.015 to <0.02)

CN1C[C@H](OC(=O)c2ccc3nc(-c4cc(Cl)cc(Cl)c4)oc3c2)[C@@H](O)C1 [Compound 57, (3S,4S)-4-hydroxy-1-methylpyrrolidin-3-yl 2-(3,5-dichlorophenyl)benzo[d] oxazole-6-carboxylate]
Formation of tafamidis at 120 min [1]: B (B is ≥25 to <50%) | Formation of tafamidis at 60 min [2]: B (B is ≥25 to <50%) | Tafamidis CSF/Plasma Ratio (iv) [3]: B (B is ≥0.015 to <0.02)

O=C(OCCN1CCNCC1)c1ccc2nc(-c3cc(Cl)cc(Cl)c3)oc2c1 [Compound 82]
Formation of tafamidis at 120 min [1]: A (A is <25%) | Formation of tafamidis at 60 min [2]: A (A is <25%) | Tafamidis CSF/Plasma Ratio over 24 hrs (po) [3]: A (A is < 0.015)

CC(C)N1CCC(OC(=O)c2ccc3nc(-c4cc(Cl)cc(Cl)c4)oc3c2)C1 (stereo not shown) [Compound 75]
Formation of tafamidis at 120 min [1]: B (B is ≥25 to <50%) | Formation of tafamidis at 60 min [2]: A (A is <25%) | Tafamidis CSF/Plasma Ratio over 24 hrs (po) [3]: B (B is ≥0.015 to <0.02)

O=C(OC1CCNCC1)c1ccc2nc(-c3cc(Cl)cc(Cl)c3)oc2c1 [Compound 13, hydrochloride]
Formation of tafamidis at 120 min [1]: A (A is <25%) | Formation of tafamidis at 60 min [2]: A (A is <25%) | Tafamidis CSF/Plasma Ratio (iv) [3]: B (B is ≥0.015 to <0.02) | Tafamidis CSF/Plasma Ratio over 24 hrs (po) [3]: B (B is ≥0.015 to <0.02)

CC(CN(C)C)OC(=O)c1ccc2nc(-c3cc(Cl)cc(Cl)c3)oc2c1 (single isomer, unassigned) [Compound 47, (R*)-1-(dimethylamino)propan-2-yl 2-(3,5-dichlorophenyl)benzo [d] oxazole-6-carboxylate]
Formation of tafamidis at 120 min [1]: D (D is ≥75%) | Formation of tafamidis at 60 min [2]: A (A is <25%) | Tafamidis CSF/Plasma Ratio over 24 hrs (po) [3]: A (A is < 0.015)

CCN(CC)CCOC(=O)c1ccc2nc(-c3cc(Cl)cc(Cl)c3)oc2c1 [Compound 35, 2-(diethylamino)ethyl 2-(3,5-dichlorophenyl)benzo[d]oxazole-6-carboxylate hydrochloride]
Formation of tafamidis at 120 min [1]: C (C is ≥50 to <75%) | Formation of tafamidis at 60 min [2]: B (B is ≥25 to <50%) | Tafamidis CSF/Plasma Ratio (iv) [3]: B (B is ≥0.015 to <0.02)

CC(CN1CCOCC1)OC(=O)c1ccc2nc(-c3cc(Cl)cc(Cl)c3)oc2c1 (stereo not shown) [Compound 143]
Formation of tafamidis at 60 min [2]: B (B is ≥25 to <50%) | Tafamidis CSF/Plasma Ratio over 24 hrs (po) [3]: A (A is < 0.015)

CN(C)CCCOC(=O)c1ccc2nc(-c3cc(Cl)cc(Cl)c3)oc2c1 [Compound 1, 3-(Dimethylamino)propyl 2-(3,5-dichlorophenyl)benzo[d]oxazole-6-carboxylate]
Formation of tafamidis at 120 min [1]: A (A is <25%) | Formation of tafamidis at 60 min [2]: A (A is <25%) | Tafamidis CSF/Plasma Ratio (iv) [3]: B (B is ≥0.015 to <0.02)

CN1CCC(OC(=O)c2ccc3nc(-c4cc(Cl)cc(Cl)c4)oc3c2)C(F)(F)C1 (stereo not shown) [Compound 14, 3,3-difluoro-1-methylpiperidin-4-yl 2-(3,5-dichlorophenyl) benzo [d]oxazole-6-carboxylate]
Formation of tafamidis at 120 min [1]: A (A is <25%) | Tafamidis CSF/Plasma Ratio (iv) [3]: B (B is ≥0.015 to <0.02)

O=C(OCCN1CCC1)c1ccc2nc(-c3cc(Cl)cc(Cl)c3)oc2c1 [Compound 36, 2-(azetidin-1-yl)ethyl 2-(3,5-dichlorophenyl)benzo[d]oxazole-6-carboxylate]
Formation of tafamidis at 120 min [1]: C (C is ≥50 to <75%) | Tafamidis CSF/Plasma Ratio (iv) [3]: A (A is <0.015)

CCN(C)CCCOC(=O)c1ccc2nc(-c3cc(Cl)cc(Cl)c3)oc2c1 [Compound 48, 3-(ethyl(methyl)amino)propyl 2-(3,5-dichlorophenyl)benzo[d] oxazole-6-carboxylate hydrochloride]
Formation of tafamidis at 120 min [1]: B (B is ≥25 to <50%) | Tafamidis CSF/Plasma Ratio (iv) [3]: A (A is <0.015)

N[C@@H](Cc1ccc(OC(=O)c2ccc3nc(-c4cc(Cl)cc(Cl)c4)oc3c2)cc1)C(=O)O [Compound 23, (S)-2-amino-3-(4-((2-(3,5-dichlorophenyl)benzo[d]oxazole-6-carbonyl)oxy)phenyl)propanoic acid hydrochloride]
Formation of tafamidis at 120 min [1]: A (A is <25%) | Tafamidis CSF/Plasma Ratio (iv) [3]: B (B is ≥0.015 to <0.02)

CC(COC(=O)c1ccc2nc(-c3cc(Cl)cc(Cl)c3)oc2c1)CN(C)C (stereo not shown) [Compound 50, 3-(dimethylamino)-2-methylpropyl 2-(3,5-dichlorophenyl) benzo [d] oxazole-6-carboxylate]
Formation of tafamidis at 120 min [1]: A (A is <25%) | Tafamidis CSF/Plasma Ratio (iv) [3]: A (A is <0.015)

N[C@@H](Cc1cccc(OC(=O)c2ccc3nc(-c4cc(Cl)cc(Cl)c4)oc3c2)c1)C(=O)O [Compound 28, (S)-2-amino-3-(3-((2-(3,5-dichlorophenyl)benzo[d]oxazole-6-carbonyl)oxy)phenyl) propanoic acid hydrochloride]
Formation of tafamidis at 120 min [1]: A (A is <25%) | Tafamidis CSF/Plasma Ratio (iv) [3]: A (A is <0.015)
